Test results as given in the supplement of paper PMC11061612.

Key:
[1] = compound: CC(=O)Nc1cccc(-n2c(=O)n(C3CC3)c(=O)c3c(Nc4ccc(I)cc4F)n(C)c(=O)c(C)c32)c1 [Trametinib]; conditions: max 1 µM
How it was run: (§1)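 Plates with 1536 wells received cancer cell lines in 7.5 μl of DMEM/F12 or RPMI containing 10% FBS. After 24 hours at 37°C and 5% CO2, cells were dosed for 72 hours with final DMSO typically 0.2%, and viability was read by CellTiter-Glo 2.0 luminescence scaled between blank-well and DMSO-well means. The single-agent IC50 was taken from a logistic fit of the dose responses made with a non-linear mixed effects model, that logistic curve having two parameters.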

[2] = compound: CC(C)n1c(=O)n(C)c2cnc3cc(F)c(-c4ccc(OCCCN5CCCCC5)nc4)cc3c21 [AZD1390]; conditions: max 0.3 µM
How it was run: as §1

[3] = compound: COc1nnc2ccc(N3CCC(c4ccc(OCCN5CCN(C)C(=O)[C@H]5C)cc4)CC3)nn12 [AZD5153]; conditions: max 1 µM
How it was run: as §1

[4] = compound: CC1=CN2[C@@H](C1)C=NC3=CC(=C(C=C3C2=O)OC)OCCCCCOC4=C(C=C5C(=C4)N=C[C@@H]6CC(=CN6C5=O)C)OC [SG3199]; conditions: max 0.001 µM
How it was run: as §1

[5] = compound: COc1cc2ncnc(Nc3ccc(F)c(Cl)c3)c2cc1OCCCN1CCOCC1 [Gefitinib]; conditions: max 10 µM
How it was run: as §1

[6] = compound: C[C@@H](Nc1cc(F)cc(F)c1)c1cc(C(=O)N(C)C)cc2c(=O)cc(N3CCOCC3)oc12 [AZD8186]; conditions: max 3 µM
How it was run: as §1

[7] = compound: CN(C)CCCOc1ccc(-c2ccc3ncc4c(c3c2)n(C2CCOCC2)c(=O)n4C)cn1 [AZD0156]
How it was run: as §1

[8] = compound: C1CN(CCC1(C(=O)N[C@@H](CCO)C2=CC=C(C=C2)Cl)N)C3=NC=NC4=C3C=CN4 [Capivasertib]
How it was run: as §1

[9] = compound: C[C@@H](Oc1cc(-c2cnn(C3CCNCC3)c2)cnc1N)c1c(Cl)ccc(F)c1Cl [Crizotinib]; conditions: max 10 µM
How it was run: as §1

[10] = compound: CS(=O)(=O)CCNCc1ccc(-c2ccc3ncnc(Nc4ccc(OCc5cccc(F)c5)c(Cl)c4)c3c2)o1 [Lapatinib]; conditions: max 10 µM
How it was run: as §1

[11] = compound: CC1=C(C(=CC=C1)Cl)NC(=O)C2=CN=C(S2)NC3=CC(=NC(=N3)C)N4CCN(CC4)CCO [Dasatinib]; conditions: max 2 µM
How it was run: as §1

[12] = compound: COc1cccc2c1C(=O)c1c(O)c3c(c(O)c1C2=O)C[C@@](O)(C(=O)CO)C[C@@H]3O[C@H]1C[C@H](N)[C@H](O)[C@H](C)O1 [Doxorubicin]; conditions: max 1 µM
How it was run: as §1

[13] = compound: CCN(CCO)CCCOc1ccc2c(Nc3cc(CC(=O)Nc4cccc(F)c4)[nH]n3)ncnc2c1 [AZD2811]; conditions: max 1 µM
How it was run: as §1

[14] = compound: Cc1c2c(nn1C)CSCc1cc(n(C)n1)CSc1cc(c3ccccc3c1)OCCCc1c(C(=O)O)n(C)c3c-2c(Cl)ccc13 [AZD5991]; conditions: max 1 µM
How it was run: as §1

[15] = compound: CN(CC[C@H](CSC1=CC=CC=C1)NC2=C(C=C(C=C2)S(=O)(=O)NC(=O)C3=CC=C(C=C3)N4CCC(CC4)[C@H](C5=CC=CC=C5C6=CC=C(C=C6)Cl)O)S(=O)(=O)C(F)(F)F)CCO [AZD4320]; conditions: max 1 µM
How it was run: as §1

[16] = compound: C[C@@H](c1ccc2nccn2c1)n1nnc2ncc(-c3cnn(C)c3)nc21 [Savolitinib]; conditions: max 1 µM
How it was run: as §1

[17] = compound: O=C(c1cc(Cc2n[nH]c(=O)c3ccccc23)ccc1F)N1CCN(C(=O)C2CC2)CC1 [Olaparib]; conditions: max 10 µM
How it was run: as §1

[18] = compound: COc1cccc(OCCCN)c1-c1cc(Nc2cnc(C#N)cn2)n[nH]1 [Prexasertib]; conditions: max 1 µM
How it was run: as §1

[19] = compound: CC(=O)c1c(C)c2cnc(Nc3ccc(N4CCNCC4)cn3)nc2n(C2CCCC2)c1=O [Palbociclib]; conditions: max 10 µM
How it was run: as §1

[20] = compound: Cc1nc(-c2cn3c(n2)-c2ccc(-c4cnn(C(C)(C)C(N)=O)c4)cc2OCC3)n(C(C)C)n1 [Taselisib]; conditions: max 10 µM
How it was run: as §1

[21] = compound: Cn1cnc2c(F)c(Nc3ccc(Br)cc3Cl)c(C(=O)NOCCO)cc21 [Selumetinib]
How it was run: as §1

[22] = compound: CCc1c2c(nc3ccc(O)cc13)-c1cc3c(c(=O)n1C2)COC(=O)[C@]3(O)CC [SN-38]; conditions: max 0.3 µM
How it was run: as §1

[23] = compound: COc1cc(Nc2ncc3c(n2)-c2ccc(Cl)cc2C(c2c(F)cccc2OC)=NC3)ccc1C(=O)O [Alisertib]; conditions: max 10 µM
How it was run: as §1

[24] = compound: C=CCn1c(=O)c2cnc(Nc3ccc(N4CCN(C)CC4)cc3)nc2n1-c1cccc(C(C)(C)O)n1 [AZD1775]
How it was run: as §1

[25] = compound: Cc1cc2ncnn2cc1Nc1ncc2c(n1)n(C1CCOCC1)c(=O)n2C [AZD7648]; conditions: max 10 µM
How it was run: as §1

[26] = compound: C[C@@H]1COCCN1C2=NC(=NC(=C2)C3(CC3)[S@](=N)(=O)C)C4=C5C=CNC5=NC=C4 [AZD6738]; conditions: max 10 µM
How it was run: as §1

[27] = compound: CC1(C)CCC(CN2CCN(c3ccc(C(=O)NS(=O)(=O)c4ccc(NCC5CCOCC5)c([N+](=O)[O-])c4)c(Oc4cnc5[nH]ccc5c4)c3)CC2)=C(c2ccc(Cl)cc2)C1 [Venetoclax]; conditions: max 1 µM
How it was run: as §1

| Cell Line | IC50, cell viability 72 h [1] [µM] | IC50, cell viability 72 h [2] [µM] | IC50, cell viability 72 h [3] [µM] | IC50, cell viability 72 h [4] [µM] | IC50, cell viability 72 h [5] [µM] | IC50, cell viability 72 h [6] [µM] | IC50, cell viability 72 h ([7]; max 3 µM) [µM] | IC50, cell viability 72 h ([8]; max 10 µM) [µM] | IC50, cell viability 72 h [9] [µM] | IC50, cell viability 72 h [10] [µM] | IC50, cell viability 72 h [11] [µM] | IC50, cell viability 72 h [12] [µM] | IC50, cell viability 72 h [13] [µM] | IC50, cell viability 72 h [14] [µM] | IC50, cell viability 72 h [15] [µM] | IC50, cell viability 72 h [16] [µM] | IC50, cell viability 72 h [17] [µM] | IC50, cell viability 72 h [18] [µM] | IC50, cell viability 72 h [19] [µM] | IC50, cell viability 72 h [20] [µM] | IC50, cell viability 72 h ([21]; max 10 µM) [µM] | IC50, cell viability 72 h [22] [µM] | IC50, cell viability 72 h [23] [µM] | IC50, cell viability 72 h ([24]; max 3 µM) [µM] | IC50, cell viability 72 h [25] [µM] | IC50, cell viability 72 h [26] [µM] | IC50, cell viability 72 h [27] [µM] | IC50, cell viability 72 h ([7]; max 1 µM) [µM] | IC50, cell viability 72 h ([8]; max 3 µM) [µM] | IC50, cell viability 72 h ([21]; max 3 µM) [µM] | IC50, cell viability 72 h ([24]; max 1 µM) [µM] |
| --- | --- | --- | --- | --- | --- | --- | --- | --- | --- | --- | --- | --- | --- | --- | --- | --- | --- | --- | --- | --- | --- | --- | --- | --- | --- | --- | --- | --- | --- | --- | --- |
| Calu-6 (Non-Small Cell Lung Carcinoma) | 0.0724 | > 0.3 | > 1 | > 0.001 | > 10 | > 3 | > 3 | > 10 | > 10 | > 10 | > 2 | > 1 | > 1 | > 1 | > 1 | > 1 | > 10 | 0.0481 | > 10 | > 10 | 6.08 | 0.0934 | 5.69 | 0.784 | > 10 | 4.1 | > 1 | – | – | – | – |
| Caov-3 (Ovarian Carcinoma) | > 1 | – | – | > 0.001 | – | > 3 | – | – | – | – | – | 0.316 | 0.0487 | > 1 | > 1 | – | > 10 | 0.0355 | – | 5.61 | – | 0.00551 | 0.0305 | – | > 10 | 2.74 | > 1 | > 1 | > 3 | > 3 | 0.453 |
| HSC-3 (Oral Cavity Carcinoma) | 0.216 | > 0.3 | 0.123 | > 0.001 | 6.9 | > 3 | > 3 | 4.55 | 5.82 | 2.31 | 0.877 | > 1 | > 1 | > 1 | > 1 | > 1 | > 10 | 0.213 | > 10 | 2.26 | > 10 | 0.0185 | 3.39 | 1.73 | > 10 | > 10 | > 1 | – | – | – | – |
| HTC-C3 (Thyroid Gland Carcinoma) | 0.0318 | > 0.3 | 0.13 | > 0.001 | > 10 | > 3 | > 3 | > 10 | > 10 | > 10 | 0.128 | > 1 | > 1 | > 1 | > 1 | > 1 | > 10 | 0.128 | > 10 | > 10 | 0.941 | > 0.3 | > 10 | 2.3 | > 10 | 3.09 | > 1 | – | – | – | – |
